Assay results reported in patent US20240132513A1, “BENZAZEPINE DERIVATIVES, COMPOSITIONS, AND METHODS FOR TREATING COGNITIVE IMPAIRMENT” (AGENEBIO, INC., priority 2022, published 2024).
Read-outs that look alike come from different tables or passages of the source.

How the values were obtained:
[1] = molecular target: T1, GABAA R (α5β2γ2) (Homo sapiens, UniProt P18507+P31644); assay: Positive allosteric modulator activity: potentiation of EC20 GABA current in oocytes; assay type: cell-based
T1 construct: expressed in transfected cells
Outline: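 Xenopus oocytes injected with 1 ng α5:β2:γ2 cDNA (1:1:10 by weight), tested day 2, voltage-clamped at −60 mV under MBS superfusion.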

[2] = molecular target: α5β3γ2 GABAA R (Homo sapiens, UniProt P18507+P31644); assay: Binding activity on GABAA R: inhibition of [3H]Ro15-1788 binding, α5 containing receptor
Outline: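 Displacement of [3H]Ro15-1788 (flumazenil) measured at 4 °C over 1 h using 0.2 mg/ml membrane protein from Ltk cells carrying α5β3γ2 GABAA receptors, expression induced with 0.5 μM dexamethasone for 1 day; buffer pH 7.4 KH2PO4/EDTA/KCl. 10 μM diazepam defined nonspecific binding; filter-trapped radioactivity counted, in triplicate.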

[3] = read-out: GABA α5 Functional Data: potentiation, @ 100 nM, EC20 GABA, ranges of the column heads
[4] = read-out: GABA α5 Functional Data: potentiation
[5] = ranges of the column heads, [3H]Ro15-1788, Ltk cell membranes

Sequence of α5β3γ2 GABAA R (P31644 32-462): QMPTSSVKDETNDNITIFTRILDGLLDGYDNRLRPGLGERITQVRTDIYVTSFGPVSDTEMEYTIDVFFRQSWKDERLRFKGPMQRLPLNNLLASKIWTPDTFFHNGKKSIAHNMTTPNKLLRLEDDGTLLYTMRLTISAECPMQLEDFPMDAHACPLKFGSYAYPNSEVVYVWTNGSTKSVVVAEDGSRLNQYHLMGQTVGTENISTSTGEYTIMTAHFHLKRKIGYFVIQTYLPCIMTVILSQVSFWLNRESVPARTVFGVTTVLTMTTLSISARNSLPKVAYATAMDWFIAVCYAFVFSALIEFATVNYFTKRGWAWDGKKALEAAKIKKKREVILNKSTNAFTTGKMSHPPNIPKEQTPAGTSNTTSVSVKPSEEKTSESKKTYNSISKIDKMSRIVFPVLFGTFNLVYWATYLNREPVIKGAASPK
Sequence of α5β3γ2 GABAA R (P28472 26-473 partner): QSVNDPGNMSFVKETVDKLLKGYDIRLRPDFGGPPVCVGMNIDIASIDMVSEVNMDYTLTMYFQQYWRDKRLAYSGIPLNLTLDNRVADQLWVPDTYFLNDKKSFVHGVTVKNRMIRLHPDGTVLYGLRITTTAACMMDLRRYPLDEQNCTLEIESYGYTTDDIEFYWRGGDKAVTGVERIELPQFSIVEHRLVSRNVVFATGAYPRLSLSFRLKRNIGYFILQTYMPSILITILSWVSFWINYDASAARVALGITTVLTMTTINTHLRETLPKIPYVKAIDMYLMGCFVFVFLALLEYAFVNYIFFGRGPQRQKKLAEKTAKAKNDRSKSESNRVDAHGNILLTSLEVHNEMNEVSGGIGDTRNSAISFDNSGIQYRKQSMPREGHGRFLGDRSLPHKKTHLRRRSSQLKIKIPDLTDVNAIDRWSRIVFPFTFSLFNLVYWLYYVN
Sequence of α5β3γ2 GABAA R (P18507 40-475): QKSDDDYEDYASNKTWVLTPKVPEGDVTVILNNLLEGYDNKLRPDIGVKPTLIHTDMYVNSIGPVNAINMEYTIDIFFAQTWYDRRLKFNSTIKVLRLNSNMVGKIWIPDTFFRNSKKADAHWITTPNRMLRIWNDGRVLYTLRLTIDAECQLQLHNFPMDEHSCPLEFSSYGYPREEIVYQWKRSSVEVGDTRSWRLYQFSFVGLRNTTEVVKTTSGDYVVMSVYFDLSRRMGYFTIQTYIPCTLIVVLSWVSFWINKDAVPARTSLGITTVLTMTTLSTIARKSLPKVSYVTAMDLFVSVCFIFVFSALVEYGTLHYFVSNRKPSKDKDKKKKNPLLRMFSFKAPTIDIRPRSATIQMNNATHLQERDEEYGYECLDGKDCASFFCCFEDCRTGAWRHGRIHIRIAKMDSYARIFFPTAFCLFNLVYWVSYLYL
T1 sequence (P31644 32-462): as the sequence (P31644 32-462) above
T1 sequence (P47870 25-512 partner limits assumed): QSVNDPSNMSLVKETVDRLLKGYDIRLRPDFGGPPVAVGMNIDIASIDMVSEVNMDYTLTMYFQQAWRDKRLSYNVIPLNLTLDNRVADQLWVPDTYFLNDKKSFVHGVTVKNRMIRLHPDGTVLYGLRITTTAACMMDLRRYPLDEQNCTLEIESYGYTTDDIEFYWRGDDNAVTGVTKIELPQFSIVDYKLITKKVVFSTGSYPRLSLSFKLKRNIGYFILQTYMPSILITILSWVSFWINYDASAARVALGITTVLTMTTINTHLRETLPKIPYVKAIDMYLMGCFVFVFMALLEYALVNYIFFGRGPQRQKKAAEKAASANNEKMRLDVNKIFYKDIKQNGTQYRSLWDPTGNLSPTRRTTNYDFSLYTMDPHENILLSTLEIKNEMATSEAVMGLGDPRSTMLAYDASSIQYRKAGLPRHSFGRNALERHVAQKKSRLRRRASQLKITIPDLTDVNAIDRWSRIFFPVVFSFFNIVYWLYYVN
T1 sequence (P18507 40-475): as the sequence (P18507 40-475) above

activation at 0.1 µM [1, 4] [%] | Ki [2, 5] [nM] | Compound | activation at 0.1 µM [1, 3] [%] | Ki [2] [nM]
 |  | CCn1cc2c(n1)-c1cc(OC)ccc1-n1cnc(-c3nc(COC)no3)c1C2 [Compound 236] | 20 to 50 | < 100
 |  | Cn1cc2c(n1)-c1cc(Cl)ccc1-n1cnc(-c3nc(C4COC4)no3)c1C2 [Compound 237] | 20 to 50 | < 100
 |  | COc1ccc2c(c1)-c1nn(C)cc1Cc1c(-c3nc(C4COC4)no3)ncn1-2 [Compound 239] | 20 to 50 | < 100
 |  | CC(C)OCc1noc(-c2ncn3c2Cc2cn(C)nc2-c2cc(Cl)ccc2-3)n1 [Compound 242] | 20 to 50 | < 100
5 to 20 | < 100 | CCOCc1nc(-c2ncn3c2Cc2cn(C)nc2-c2cc(Cl)ccc2-3)no1 [Compound 243] |  | 
 |  | COc1ccc2c(c1)-c1c(cnn1CC1CCCO1)Cc1c(-c3nc(C(C)C)no3)ncn1-2 (stereo not shown) [Compound 244] | 5 to 20 | < 100
 |  | COc1ccc2c(c1)-c1nn(CC3CCOC3)cc1Cc1c(-c3nc(C(C)C)no3)ncn1-2 (stereo not shown) [Compound 245] | 20 to 50 | < 100
 |  | COc1ccc2c(c1)-c1nn(C3CCOC3)cc1Cc1c(-c3nc(C4CC4)no3)ncn1-2 (stereo not shown) [Compound 247] | 20 to 50 | < 100
 |  | CCn1cc2c(n1)-c1cc(OC)ccc1-n1cnc(-c3noc(CN(C)C)n3)c1C2 [Compound 248] | 20 to 50 | < 100
 |  | COc1ccc2c(c1)-c1c(cnn1CC1CCOC1)Cc1c(-c3nc(C4CC4)no3)ncn1-2 (stereo not shown) [Compound 249] | 5 to 20 | < 100
> 50 | < 100 | Cn1cc2c(n1)-c1cc(Cl)ccc1-n1cnc(-c3nc(CN4CCOCC4)no3)c1C2 [Compound 250] |  | 
5 to 20 | < 100 | CC(C)c1noc(-c2ncn3c2Cc2cn(CC4CCOCC4)nc2-c2cc(Cl)ccc2-3)n1 [Compound 251] |  | 
 |  | COc1ccc2c(c1)-c1nn(C)cc1Cc1c(-c3nc([C@H]4CCOC4)no3)ncn1-2 [Compound 252] | 20 to 50 | < 100
 |  | Cn1cc2c(n1)-c1cc(Cl)ccc1-n1cnc(-c3nc([C@H]4CCOC4)no3)c1C2 [Compound 253] | 5 to 20 | < 100
 |  | CCn1cc2c(n1)-c1cc(OC)ccc1-n1cnc(-c3noc(COCC(F)(F)F)n3)c1C2 [Compound 254] | 20 to 50 | < 100
 |  | CCn1cc2c(n1)-c1cc(OC)ccc1-n1cnc(-c3noc(C(C)(C)OC)n3)c1C2 [Compound 255] | 5 to 20 | < 100
 |  | COc1ccc2c(c1)-c1nn(C)cc1Cc1c(-c3noc([C@@H]4CCOC4)n3)ncn1-2 [Compound 256] | 5 to 20 | < 100
 |  | COc1ccc2c(c1)-c1nn(C)cc1Cc1c(-c3noc([C@H]4CCOC4)n3)ncn1-2 [Compound 257] | 20 to 50 | < 100
 |  | COc1ccc2c(c1)-c1nn(C)cc1Cc1c(-c3noc([C@H]4CCCO4)n3)ncn1-2 [Compound 258] | 5 to 20 | < 100
 |  | COc1ccc2c(c1)-c1nn(C)cc1Cc1c(-c3noc([C@@H]4CCCO4)n3)ncn1-2 [Compound 259] | 5 to 20 | < 100
 |  | COc1ccc2c(c1)-c1nn(C)cc1Cc1c(-c3nc([C@@H]4CCOC4)no3)ncn1-2 [Compound 260] | 5 to 20 | < 100
 |  | Cn1cc2c(n1)-c1cc(Cl)ccc1-n1cnc(-c3nc([C@@H]4CCOC4)no3)c1C2 [Compound 261] | 5 to 20 | < 100
 |  | COc1ccc2c(c1)-c1nn(C3CCOC3)cc1Cc1c(-c3nc(C(F)(F)F)no3)ncn1-2 (stereo not shown) [Compound 263] | 5 to 20 | < 100
